Reference: patent US5235061A, “Fungicidal (1H-1,2,4-triazolyl)disilaalkanes” (priority 1991, dated 1993)

Columns and labels:
Experiment in all cases: In vitro percent disease control (radii of spore growth on agar)
Type in all cases: cell-based
Pyricalaria oryzae = settings: for inhibition of growth at 50 ppm: read-out: % controlled, Py. or., 50 ppm; for inhibition of growth at 100 ppm: read-out: % controlled, Py. or., 100 ppm
Procedure: (§1) The compounds of this invention were dissolved respectively in acetone in an amount equal to 10% of the final volume and then in purified water at the concentration of 100 ppm and 50 ppm.
(§2) Each of the solution was mixed with potato-sucrose-agar medium in a 6" petri dish and one of the fungi was spotted at the center of the dish. The dish was incubated in growth room for several days. The percent disease control was derived from the radii of spore growth. The screening tests in vitro condition are well-known to those skilled in the art.
(§3) The following fungi were used for the screening.
6) Py.or.; Pyricalaria oryzae

Phytophthora capsisi = settings: Phytophthora, read-out: % controlled, Phy ca.
Procedure: as §1, §2, §3
2) Phy. ca.; Phytophthora capsisi

Alternaria mali = settings: Alternaria mali, read-out: % controlled, Al.
Procedure: as §1, §2, §3

Rhizopus sp. = settings: Rhizopus, read-out: % controlled, Rhi. sp.
Procedure: as §1, §2, §3

Fusarium moniliforme = test system: Fusarium moniliforme
Procedure: as §1, §2, §3
8) Fu.mo.; Fusarium moniliforme

[1] = test system: Botryosphaeria dothidea Macrophoma sp.; settings: Botryosphaeria dothidea, read-out: % controlled, Bo.do (Ma.)
Procedure: as §1, §2, §3
4) Bo.do(Ma); Botryosphaeria dothidea Macrophoma sp.

Glomerella cingulata = settings: Colletotrichum gloeosporioides, read-out: % controlled, Glo.
Procedure: as §1, §2, §3
5) Glo.; Glomerella cingulata

Botry tris cinerea = settings: read-out: % controlled, Bo ci.
Procedure: as §1, §2, §3
10) Bo.ci.; Botry tris cinerea

Physalospora baccae = settings: read-out: % controlled, Phy ba.
Procedure: as §1, §2, §3
3) Phy. ba.; Physalospora baccae

Rhizoctonia solani = settings: Rhizoctonia solani, read-out: % controlled, Rhy. so.
Procedure: as §1, §2, §3
7) Rhi.so.; Rhizoctonia solani

Molecule C=CC[Si](C[Si](C)(Cn1cncn1)c1ccc(OCC)cc1)(c1ccccc1)c1ccc(-c2ccccc2)cc1 (centres unmarked) [6-(4-ethoxyphenyl)-6-methyl-4-phenyl-4-(4-phenylphenyl-4,6-disila-7-(1H-1,2,4-triazol-1-yl)-1-heptane] has an inhibition of growth at 50 ppm (Pyricalaria oryzae) of 75%, an inhibition of growth at 100 ppm (Pyricalaria oryzae) of 85% and an inhibition of growth at 50 ppm (Phytophthora capsisi) of 60%. The inhibition of growth at 100 ppm (Phytophthora capsisi) was 70%, the inhibition of growth at 50 ppm (Alternaria mali) was 100% and the inhibition of growth at 100 ppm (Alternaria mali) was 100%. The inhibition of growth at 50 ppm (Rhizopus sp.) was 75%, the inhibition of growth at 100 ppm (Rhizopus sp.) was 75% and the “% controlled, Fu. mo.” value (Fusarium moniliforme; 50 ppm) was 80%. The “% controlled, Fu. mo.” value (Fusarium moniliforme; 100 ppm) was 80%, the inhibition of growth at 50 ppm [1] was 100% and the inhibition of growth at 100 ppm [1] was 100%. For the same molecule, the inhibition of growth at 50 ppm (Glomerella cingulata) was 80%, the inhibition of growth at 100 ppm (Glomerella cingulata) was 90% and the inhibition of growth at 50 ppm (Botry tris cinerea) was 80%. It also gave an inhibition of growth at 100 ppm (Botry tris cinerea) of 85%, an inhibition of growth at 50 ppm (Physalospora baccae) of 100% and an inhibition of growth at 100 ppm (Physalospora baccae) of 100%. The inhibition of growth at 50 ppm (Rhizoctonia solani) was 100% and the inhibition of growth at 100 ppm (Rhizoctonia solani) was 100%.

Work on CCOc1ccc([Si](C)(Cn2cncn2)C[Si](C)(C)c2ccc(F)cc2)cc1 (centres unmarked) [2-(4-ethoxyphenyl)-4-(4-fluorophenyl)-2,4-dimethyl-2,4-disila-1-(1H-1,2,4-triazol-1-yl)pentane] yielded an inhibition of growth at 50 ppm (Pyricalaria oryzae) of 64%, an inhibition of growth at 100 ppm (Pyricalaria oryzae) of 64% and an inhibition of growth at 50 ppm (Phytophthora capsisi) of 9%. The inhibition of growth at 100 ppm (Phytophthora capsisi) was 9%, the inhibition of growth at 50 ppm (Alternaria mali) was 38% and the inhibition of growth at 100 ppm (Alternaria mali) was 44%. For the same molecule, the inhibition of growth at 50 ppm (Rhizopus sp.) was 29%, the inhibition of growth at 100 ppm (Rhizopus sp.) was 32% and the “% controlled, Fu. mo.” value (Fusarium moniliforme; 50 ppm) was 41%. For the same molecule, the “% controlled, Fu. mo.” value (Fusarium moniliforme; 100 ppm) was 45%, the inhibition of growth at 50 ppm [1] was 40% and the inhibition of growth at 100 ppm [1] was 46%. For the same molecule, the inhibition of growth at 50 ppm (Glomerella cingulata) was 67%, the inhibition of growth at 100 ppm (Glomerella cingulata) was 69% and the inhibition of growth at 50 ppm (Botry tris cinerea) was 0%. The inhibition of growth at 100 ppm (Botry tris cinerea) was 0%, the inhibition of growth at 50 ppm (Physalospora baccae) was 28% and the inhibition of growth at 100 ppm (Physalospora baccae) was 28%. For the same molecule, the inhibition of growth at 50 ppm (Rhizoctonia solani) was 74% and the inhibition of growth at 100 ppm (Rhizoctonia solani) was 89%.

Work on C=CC[Si](C)(Cn1cncn1)C[Si](CC=C)(CC=C)CC=C (centres unmarked) [4-methyl-6-bis(2-propenyl)-4,6-disila-4-(1H-1,2,4-triazol-1-ylmethyl)-1,8-nonadiene] yielded an inhibition of growth at 50 ppm (Pyricalaria oryzae) of 100%, an inhibition of growth at 100 ppm (Pyricalaria oryzae) of 100% and an inhibition of growth at 50 ppm (Phytophthora capsisi) of 45%. It also gave an inhibition of growth at 100 ppm (Phytophthora capsisi) of 50%, an inhibition of growth at 50 ppm (Alternaria mali) of 75% and an inhibition of growth at 100 ppm (Alternaria mali) of 95%. The inhibition of growth at 50 ppm (Rhizopus sp.) was 60%, the inhibition of growth at 100 ppm (Rhizopus sp.) was 80% and the “% controlled, Fu. mo.” value (Fusarium moniliforme; 50 ppm) was 46%. For the same molecule, the “% controlled, Fu. mo.” value (Fusarium moniliforme; 100 ppm) was 65%, the inhibition of growth at 50 ppm [1] was 70% and the inhibition of growth at 100 ppm [1] was 75%. It also gave an inhibition of growth at 50 ppm (Glomerella cingulata) of 82%, an inhibition of growth at 100 ppm (Glomerella cingulata) of 87% and an inhibition of growth at 50 ppm (Botry tris cinerea) of 60%. It also gave an inhibition of growth at 100 ppm (Botry tris cinerea) of 80%, an inhibition of growth at 50 ppm (Physalospora baccae) of 80% and an inhibition of growth at 100 ppm (Physalospora baccae) of 85%. The inhibition of growth at 50 ppm (Rhizoctonia solani) was 96% and the inhibition of growth at 100 ppm (Rhizoctonia solani) was 96%.

With C=CC[Si](C)(Cn1cncn1)C[Si](CC=C)(CC=C)c1ccc(F)cc1 (centres unmarked) [6-(4-fluorophenyl)-4-methyl-6-(2-propenyl)-4,6-disila-4-(1H-1,2,4-triazol-1-ylmethyl)-1,8-nonadiene] the inhibition of growth at 50 ppm (Pyricalaria oryzae) was 100%, the inhibition of growth at 100 ppm (Pyricalaria oryzae) was 100% and the inhibition of growth at 50 ppm (Phytophthora capsisi) was 55%. The inhibition of growth at 100 ppm (Phytophthora capsisi) was 60%, the inhibition of growth at 50 ppm (Alternaria mali) was 78% and the inhibition of growth at 100 ppm (Alternaria mali) was 90%. For the same molecule, the inhibition of growth at 50 ppm (Rhizopus sp.) was 56%, the inhibition of growth at 100 ppm (Rhizopus sp.) was 58% and the “% controlled, Fu. mo.” value (Fusarium moniliforme; 50 ppm) was 60%. For the same molecule, the “% controlled, Fu. mo.” value (Fusarium moniliforme; 100 ppm) was 60%, the inhibition of growth at 50 ppm [1] was 79% and the inhibition of growth at 100 ppm [1] was 90%. The inhibition of growth at 50 ppm (Glomerella cingulata) was 82%, the inhibition of growth at 100 ppm (Glomerella cingulata) was 85% and the inhibition of growth at 50 ppm (Botry tris cinerea) was 90%. The inhibition of growth at 100 ppm (Botry tris cinerea) was 95%, the inhibition of growth at 50 ppm (Physalospora baccae) was 90% and the inhibition of growth at 100 ppm (Physalospora baccae) was 95%. The inhibition of growth at 50 ppm (Rhizoctonia solani) was 96% and the inhibition of growth at 100 ppm (Rhizoctonia solani) was 96%.
